Experimental data published in patent US6737383B1, “Herbicidal oxadiazolidines” (priority 1999, dated 2004).

Key:
[1] = test system: bedstraw; test: Test B pre/postemergence bedstraw; format: in vivo, Galium aparine
Method in brief: (§1)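 Herbicidal effect was estimated by eye on a ten-point control scale after plants spent twelve to sixteen days in a greenhouse following soil or foliar treatment. Foliar sprays targeted plants at one to four leaves; all doses were formulated in a non-phytotoxic solvent with surfactant.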

[2] = test system: blackgrass; test: Test B pre/postemergence blackgrass; format: in vivo, Alopecurus myosuroides
Method in brief: as §1

[3] = test system: surinam grass; test: Test B pre/postemergence surinam grass; format: in vivo, Brachiaria decumbens
Method in brief: as §1

[4] = test system: cocklebur; test: Test B pre/postemergence cocklebur; format: in vivo, Xanthium strumarium
Method in brief: as §1

[5] = test system: corn; test: Test B pre/postemergence corn; format: in vivo, Zea mays
Method in brief: as §1

[6] = test system: crabgrass; test: Test B pre/postemergence crabgrass; format: in vivo, Digitaria sanguinalis
Method in brief: as §1

[7] = test system: giant foxtail; test: Test B pre/postemergence giant foxtail; format: in vivo, Setaria faberii
Method in brief: as §1

[8] = test system: rape; test: Test B pre/postemergence rape; format: in vivo, Brassica napus
Method in brief: as §1

[9] = test system: soybean; test: Test B pre/postemergence soybean; format: in vivo, Glycine max
Method in brief: as §1

[10] = test system: sugar beet; test: Test B pre/postemergence sugar beet; format: in vivo, Beta vulgaris
Method in brief: as §1

[11] = test system: velvetleaf; test: Test B pre/postemergence velvetleaf; format: in vivo, Abutilon theophrasti
Method in brief: as §1

[12] = test system: wheat; test: Test B pre/postemergence wheat; format: in vivo, Triticum aestivum
Method in brief: as §1

[13] = test system: purple nutsedge; test: Test B pre/postemergence purple nutsedge; format: in vivo, Cyperus rotundus
Method in brief: as §1

[14] = test system: rice; test: Test B flood test rice; format: in vivo, Oryza sativa
Method in brief: (§2)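 Each value is a visual injury score relative to controls, with 10 meaning complete control and 0 no effect. Evaluation took place twelve to sixteen days after the 2-leaf-stage plants were treated and kept in the greenhouse.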

[15] = test system: smallflower flatsedge; test: Test B flood test smallflower flatsedge; format: in vivo, Cyperus difformis
Method in brief: as §2

[16] = test system: duck salad; test: Test B flood test duck salad; format: in vivo, Heteranthera limosa
Method in brief: as §2

[17] = test system: bamyardgrass; test: Test B flood test barnyardgrass; format: in vivo, Echinochloa crus-galli
Method in brief: as §2

[18] = Preemergence, Rate 62 g/ha, scale of 0 to 10 where 0 is no effect and 10 is complete control
[19] = Preemergence, Rate 125 g/ha, 0 is no effect, 10 is complete control
[20] = Preemergence, Rate 250 g/ha, scale 0 to 10, 0 is no effect, 10 is complete control
[21] = Preemergence, Rate 500 g/ha, scale of 0 to 10 where 0 is no effect and 10 is complete control
[22] = Rate 62 g/ha, Postemergence, scale of 0 to 10 where 0 is no effect and 10 is complete control
[23] = Rate 125 g/ha, Postemergence, scale 0 to 10
[24] = Rate 500 g/ha, Postemergence, scale 0 to 10
[25] = Rate 62 g/ha, headed Pre-emergence (flood test species), scale 0 to 10 (0 no effect, 10 complete control)
[26] = Rate 125 g/ha, Pre-emergence, flood test species, scale 0 to 10 where 0 is no effect and 10 is complete control
[27] = Rate 250 g/ha, Pre-emergence, flood-test species, scale 0 to 10, 0 is no effect, 10 is complete control
[28] = Rate 500 g/ha, headed Pre-emergence (flood test species), scale 0 to 10 (0 no effect, 10 complete control)

In the case of `CC(C)N(C(=O)n1oc(=O)n(-c2ccc(OC(F)(F)F)cc2)c1=O)c1ccc(F)cc1` [Compound 202], the “Bedstraw plant response rating” value [1, 18] is reported as 0, the “Bedstraw plant response rating (0 to 10 scale)” value [1, 19] is reported as 0 and the “Bedstraw plant response rating” value [1, 20] is reported as 6. The “Plant response rating, Bedstraw” value [1, 21] was 2, the “Bedstraw plant response rating” value [1, 22] was 1 and the “Bedstraw plant response rating” value [1, 23] was 2. The “Plant response rating (0 to 10; 0 is no effect, 10 is complete control), Bedstraw” value ([1]; Rate 250 g/ha, Postemergence) was 4, the “Bedstraw plant response rating” value [1, 24] was 4 and the “Blackgrass plant response rating” value [2, 18] was 0. For the same compound, the “Blackgrass plant response rating (0 to 10 scale)” value [2, 19] was 0, the “Blackgrass plant response rating” value [2, 20] was 5 and the “Plant response rating, Blackgrass” value [2, 21] was 2. The “Blackgrass plant response rating” value [2, 22] was 0, the “Blackgrass plant response rating” value [2, 23] was 3 and the “Plant response rating (0 to 10; 0 is no effect, 10 is complete control), Blackgrass” value ([2]; Rate 250 g/ha, Postemergence) was 5. For the same compound, the “Blackgrass plant response rating” value [2, 24] was 6, the “B. signalgrass plant response rating” value [3, 18] was 0 and the “B. signalgrass plant response rating (0 to 10 scale)” value [3, 19] was 0. The “B. signalgrass plant response rating” value [3, 20] was 0, the “Plant response rating, B. signalgrass” value [3, 21] was 0 and the “B. signalgrass plant response rating” value [3, 22] was 0. The “B. signalgrass plant response rating” value ([3]; Rate 125 g/ha, Postemergence, scale 0 (no effect) to 10 (complete control)) was 0, the “Plant response rating, B. signalgrass” value ([3]; Rate 250 g/ha, Postemergence, scale 0 to 10, 0 is no effect, 10 is complete control) was 0 and the “B. signalgrass plant response rating” value ([3]; Rate 500 g/ha, Postemergence, scale 0 to 10, 0 no effect, 10 complete control) was 0. For the same compound, the “Cocklebur plant response rating” value [4, 18] was 0, the “Cocklebur plant response rating (0 to 10 scale)” value [4, 19] was 0 and the “Cocklebur plant response rating” value [4, 20] was 0. For the same compound, the “Plant response rating, Cocklebur” value [4, 21] was 0, the “Cocklebur plant response rating” value [4, 22] was 0 and the “Cocklebur plant response rating” value [4, 23] was 0. For the same compound, the “Plant response rating (0 to 10; 0 is no effect, 10 is complete control), Cocklebur” value ([4]; Rate 250 g/ha, Postemergence) was 2, the “Cocklebur plant response rating” value [4, 24] was 2 and the “Corn plant response rating” value [5, 18] was 0. For the same compound, the “Corn plant response rating (0 to 10 scale)” value [5, 19] was 0, the “Corn plant response rating” value [5, 20] was 0 and the “Plant response rating, Corn” value [5, 21] was 0. For the same compound, the “Corn plant response rating” value [5, 22] was 0, the “Corn plant response rating” value [5, 23] was 0 and the “Plant response rating (0 to 10; 0 is no effect, 10 is complete control), Corn” value ([5]; Rate 250 g/ha, Postemergence) was 0. The “Corn plant response rating” value [5, 24] was 0, the “Crabgrass plant response rating” value [6, 18] was 3 and the “Crabgrass plant response rating (0 to 10 scale)” value [6, 19] was 4. The “Crabgrass plant response rating” value [6, 20] was 6, the “Plant response rating, Crabgrass” value [6, 21] was 9 and the “Crabgrass plant response rating” value [6, 22] was 0. The “Crabgrass plant response rating” value [6, 23] was 0, the “Plant response rating (0 to 10; 0 is no effect, 10 is complete control), Crabgrass” value ([6]; Rate 250 g/ha, Postemergence) was 1 and the “Crabgrass plant response rating” value [6, 24] was 4. For the same compound, the “Giant foxtail plant response rating” value [7, 18] was 2, the “Giant foxtail plant response rating (0 to 10 scale)” value [7, 19] was 6 and the “Giant foxtail plant response rating” value [7, 20] was 7. For the same compound, the “Plant response rating, Giant foxtail” value [7, 21] was 10, the “Giant foxtail plant response rating” value [7, 22] was 0 and the “Giant foxtail plant response rating” value [7, 23] was 0. For the same compound, the “Plant response rating (0 to 10; 0 is no effect, 10 is complete control), Giant foxtail” value ([7]; Rate 250 g/ha, Postemergence) was 0, the “Giant foxtail plant response rating” value [7, 24] was 2 and the “Rape plant response rating” value [8, 18] was 0. For the same compound, the “Rape plant response rating (0 to 10 scale)” value [8, 19] was 0, the “Rape plant response rating” value [8, 20] was 0 and the “Plant response rating, Rape” value [8, 21] was 0. The “Rape plant response rating” value [8, 22] was 1, the “Rape plant response rating” value [8, 23] was 1 and the “Plant response rating (0 to 10; 0 is no effect, 10 is complete control), Rape” value ([8]; Rate 250 g/ha, Postemergence) was 1. The “Rape plant response rating” value [8, 24] was 4, the “Soybean plant response rating” value [9, 18] was 0 and the “Soybean plant response rating (0 to 10 scale)” value [9, 19] was 0. The “Soybean plant response rating” value [9, 20] was 0, the “Plant response rating, Soybean” value [9, 21] was 0 and the “Soybean plant response rating” value [9, 22] was 2. The “Soybean plant response rating” value [9, 23] was 2, the “Plant response rating (0 to 10; 0 is no effect, 10 is complete control), Soybean” value ([9]; Rate 250 g/ha, Postemergence) was 3 and the “Soybean plant response rating” value [9, 24] was 3. The “Sugarbeets plant response rating” value [10, 18] was 0, the “Sugarbeets plant response rating (0 to 10 scale)” value [10, 19] was 0 and the “Sugarbeets plant response rating” value [10, 20] was 3. For the same compound, the “Plant response rating, Sugarbeets” value [10, 21] was 1, the “Sugarbeets plant response rating” value [10, 22] was 0 and the “Sugarbeets plant response rating” value [10, 23] was 3. The “Plant response rating (0 to 10; 0 is no effect, 10 is complete control), Sugarbeets” value ([10]; Rate 250 g/ha, Postemergence) was 4, the “Sugarbeets plant response rating” value [10, 24] was 4 and the “Velvetleaf plant response rating” value [11, 18] was 0. The “Velvetleaf plant response rating” value [11, 20] was 6, the “Plant response rating, Velvetleaf” value [11, 21] was 1 and the “Velvetleaf plant response rating” value [11, 22] was 0. For the same compound, the “Velvetleaf plant response rating” value [11, 23] was 0, the “Plant response rating (0 to 10; 0 is no effect, 10 is complete control), Velvetleaf” value ([11]; Rate 250 g/ha, Postemergence) was 0 and the “Wheat plant response rating” value [12, 18] was 0. The “Wheat plant response rating” value [12, 20] was 0, the “Plant response rating, Wheat” value [12, 21] was 2 and the “Wheat plant response rating” value [12, 22] was 0. For the same compound, the “Wheat plant response rating” value [12, 23] was 0, the “Plant response rating (0 to 10; 0 is no effect, 10 is complete control), Wheat” value ([12]; Rate 250 g/ha, Postemergence) was 0 and the “Nutsedge plant response rating” value [13, 18] was 0. For the same compound, the “Nutsedge plant response rating” value [13, 22] was 0, the “Nutsedge plant response rating” value [13, 23] was 0 and the “Plant response rating (0 to 10; 0 is no effect, 10 is complete control), Nutsedge” value ([13]; Rate 250 g/ha, Postemergence) was 0. The “Nutsedge plant response rating” value [13, 24] was 0, the “Rice plant response rating” value [14, 25] was 0 and the “Rice plant response rating” value [14, 26] was 0. For the same compound, the “Rice plant response rating” value [14, 27] was 0, the “Plant response rating, Rice” value [14, 28] was 0 and the “S. Flatsedge plant response rating” value [15, 25] was 0. For the same compound, the “S. Flatsedge plant response rating” value [15, 26] was 0, the “S. Flatsedge plant response rating” value [15, 27] was 0 and the “S. Flatsedge plant response rating” value ([15]; Rate 500 g/ha, Pre-emergence, flood test species, scale 0 to 10 (0 no effect, 10 complete control)) was 0. The “Ducksalad plant response rating” value [16, 25] was 0, the “Ducksalad plant response rating” value [16, 26] was 0 and the “Ducksalad plant response rating” value [16, 27] was 0. For the same compound, the “Plant response rating, Ducksalad” value [16, 28] was 0, the “Barnyardgrass plant response rating” value [17, 25] was 0 and the “Barnyardgrass plant response rating” value [17, 26] was 0. The “Barnyardgrass plant response rating” value [17, 27] was 0 and the “Plant response rating, Barnyardgrass” value [17, 28] was 0.
